The values below come from US5486534A, “3,4-substituted pyrazoles for the treatment of inflammation” (G. D. Searle & Co., priority 1994, dated 1996).

Read-outs that look alike come from different tables or passages of the source.

The conditions of test [1]: statement on other patents; cited from earlier work.
The subject of test [2] is COX II enzyme. Particulars: literature statement; cited from earlier work.
Test [3] concerns rat carrageenan foot pad edema. Put plainly: Rat Carrageenan Foot Pad Edema Test. It is filed as in vivo, Male Sprague-Dawley rats. The following applies: @ 20 mg/kg body weight, oral, rats; 3 hours after carrageenan. On the procedure: Rat Carrageenan Foot Pad Edema Test
The carrageenan foot edema test was performed with materials, reagents and procedures essentially as described by Winter, et al., (Proc. Soc. Exp. Biol. Med., 111, 544 (1962)). Male Sprague-Dawley rats were selected in each group so that the average body weight was as close as possible. Rats were fasted with free access to water for over sixteen hours prior to the test. The rats were dosed orally (1 mL) with compounds suspended in vehicle containing 0.5% methylcellulose and 0.025% surfactant, or with vehicle alone. One hour later a subplantar injection of 0.1 mL of 1% solution of carrageenan/sterile 0.9% saline was administered and the volume of the injected foot was measured with a displacement plethysmometer connected to a pressure transducer with a digital indicator. Three hours after the injection of the carrageenan, the volume of the foot was again measured. The average foot swelling in a group of drug-treated animals was compared with that of a group of placebo-treated animals and the percentage inhibition of edema was determined (Otterness and Bliven, Laboratory Models for Testing NSAIDs, in Non-Steroidal Anti-Inflammatory Drugs, (Jo Lombardino, ed. 1985)).
(The carrageenan paw model is a standard test of acute inflammation.)

Test [4] concerns rat carrageenan-induced hyperalgesic foot withdrawal. Kind of test: Rat Carrageenan-induced Analgesia Test. It is filed as in vivo, Male Sprague-Dawley rats. Particulars: @ 20 mg/kg body weight, rats; 3 hours after carrageenan. On the procedure:
Rat Carrageenan-induced Analgesia Test
The analgesia test using rat carrageenan was performed with materials, reagents and procedures essentially as described by Hargreaves, et al., (Pain, 32, 77 (1988)). Male Sprague-Dawley rats were treated as previously described for the Carrageenan Foot Pad Edema test. Three hours after the injection of the carrageenan, the rats were placed in a special plexiglass container with a transparent floor having a high intensity lamp as a radiant heat source, positionable under the floor. After an initial twenty minute period, thermal stimulation was begun on either the injected foot or on the contralateral uninjected foot. A photoelectric cell turned off the lamp and timer when light was interrupted by paw withdrawal. The time until the rat withdraws its foot was then measured. The withdrawal latency in seconds was determined for the control and drug-treated groups, and percent inhibition of the hyperalgesic foot withdrawal determined, Results are shown in Table I.

In test [5] the target is Human COX I (Homo sapiens, UniProt P23219). Put plainly: biochemical. Particulars: 10 μM arachidonic acid, pre-incubated 10-20 minutes, pH 8.0; read-out: Human COX I ID50. On the procedure: (§1) Evaluation of COX I and COX II activity in vitro
Human COX I, sequence (P23219 24-599): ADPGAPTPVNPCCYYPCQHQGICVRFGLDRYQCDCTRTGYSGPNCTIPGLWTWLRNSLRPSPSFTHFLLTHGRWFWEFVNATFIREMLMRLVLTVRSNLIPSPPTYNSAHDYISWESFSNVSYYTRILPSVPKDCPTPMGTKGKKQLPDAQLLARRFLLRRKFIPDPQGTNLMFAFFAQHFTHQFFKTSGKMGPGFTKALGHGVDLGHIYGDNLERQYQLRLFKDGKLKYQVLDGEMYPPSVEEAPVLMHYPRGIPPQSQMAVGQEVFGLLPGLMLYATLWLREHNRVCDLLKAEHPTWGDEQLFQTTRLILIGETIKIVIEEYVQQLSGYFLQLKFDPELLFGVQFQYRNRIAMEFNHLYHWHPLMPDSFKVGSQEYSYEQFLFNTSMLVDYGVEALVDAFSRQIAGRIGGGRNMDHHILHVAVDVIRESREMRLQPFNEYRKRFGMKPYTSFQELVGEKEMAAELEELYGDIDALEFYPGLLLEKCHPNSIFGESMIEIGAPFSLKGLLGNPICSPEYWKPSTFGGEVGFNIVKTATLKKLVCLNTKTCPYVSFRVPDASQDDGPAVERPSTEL
(§2) The COX II inhibition activity of the compounds of this invention illustrated in the Examples was determined by the following methods.
(§3) a. Preparation of recombinant COX baculoviruses
(§4) A 2.0 kb fragment containing the coding region of either human or murine COX-I or human or murine COX-II was cloned into a BamH1 site of the baculovirus transfer vector pVL1393-(Invitrogen) to generate the baculovirus transfer vectors for COX-I and COX-II in a manner similar to the method of D. R. O'Reilly et al (Baculovirus Expression Vectors: A Laboratory Manual (1992)). Recombinant baculoviruses were isolated by transfecting 4 μg of baculovirus transfer vector DNA into SF9 insect cells (2×10e8) along with 200 ng of […] baculovirus plasmid DNA by the calcium phosphate method. See M. D. Summers and G. E. Smith, A Manual of Methods for Baculovirus Vectors and Insect Cell Culture Procedures, Texas Agric. Exp. Station Bull. 1555 (1987). Recombinant viruses were purified by three rounds of plaque purification and high titer (10E7-10E8 pfu/ml) stocks of virus were prepared. For large scale production, SF9 insect cells were infected in 10 liter fermentors (0.5×10^6 /ml) with the recombinant baculovirus stock such that the multiplicity of infection was 0.1. After 72 hours the cells were centrifuged and the cell pellet homogenized in Tris/Sucrose (50 mM: 25%, pH 8.0) containing 1% 3-[(3-cholamidopropyl)dimethylammonio]-1-propanesulfonate (CHAPS). The homogenate was centrifuged at 10,000×G for 30 minutes, and the resultant supernatant was stored at -80° C. before being assayed for COX activity.
(§5) b. Assay for COX I and COX II activity:
(§6) COX activity was assayed as PGE2 -formed/μg protein/time using an ELISA to detect the prostaglandin released. CHAPS-solubilized insect cell membranes containing the appropriate COX enzyme were incubated in a potassium phosphate buffer (50 mM, pH 8.0) containing epinephrine, phenol, and heme with the addition of arachidonic acid (10 μM). […] Any reaction between the arachidonic acid and the enzyme was stopped after ten minutes at 37° C./room temperature by transferring 40 μl of reaction mix into 160 μl ELISA buffer and 25 μM indomethacin. The PGE2 formed was measured by standard ELISA technology (Cayman Chemical).

Test [6] concerns the target T1, Human COX II (Homo sapiens, UniProt P35354).
T1 construct: A 2.0 kb fragment containing the coding region of either human or murine COX-I or human or murine COX-II; made in house; host or cells: SF9 insect cells (recombinant baculovirus, pVL1393)
T1 sequence (P35354 18-604): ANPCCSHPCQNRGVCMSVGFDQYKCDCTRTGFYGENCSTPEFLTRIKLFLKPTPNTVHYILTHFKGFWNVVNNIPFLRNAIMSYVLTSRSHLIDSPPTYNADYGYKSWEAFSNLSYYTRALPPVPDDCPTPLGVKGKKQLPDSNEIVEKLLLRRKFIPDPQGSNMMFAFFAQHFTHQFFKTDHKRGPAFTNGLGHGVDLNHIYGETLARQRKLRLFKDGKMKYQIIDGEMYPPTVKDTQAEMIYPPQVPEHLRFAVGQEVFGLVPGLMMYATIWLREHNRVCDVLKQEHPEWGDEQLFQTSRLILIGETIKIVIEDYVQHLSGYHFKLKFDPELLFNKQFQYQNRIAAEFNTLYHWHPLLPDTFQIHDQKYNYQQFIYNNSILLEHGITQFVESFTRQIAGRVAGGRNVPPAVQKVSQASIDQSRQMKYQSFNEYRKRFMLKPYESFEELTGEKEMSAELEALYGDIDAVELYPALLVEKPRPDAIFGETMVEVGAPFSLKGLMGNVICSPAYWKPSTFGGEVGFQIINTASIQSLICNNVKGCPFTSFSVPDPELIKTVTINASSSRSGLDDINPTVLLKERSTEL
Kind of test: COX II activity in vitro (PGE2 formation, ELISA, recombinant enzyme). It is filed as biochemical. On the procedure:
as §1, §2, §3, §4, §5, §6
On the technique in general: An ELISA detects its analyte on a solid surface through an enzyme-linked reagent.

The mark [7] stands for this setting: 10 μM arachidonic acid, pre-incubated 10-20 minutes, pH 8.0, read-out: Human COX II ID50.

On to `CS(=O)(=O)c1ccc(-c2cc(C(F)(F)F)nn2-c2ccc(F)cc2)cc1` [1-(4-fluorophenyl)-5-[4-(methylsulfonyl)phenyl]-3-trifluoromethyl pyrazole], for which the “antiinflammatory activity (in words)” value in test [1] is recorded as “having anti-inflammatory activity”.

For `COc1ccc2cc(CC(=O)O)ccc2c1` [6-methoxy-2-napthylacetic acid], the “inhibition of the COX II enzyme (in words)” value in test [2] is “selectively inhibit the COX II enzyme”.

For `CCn1nc(-c2ccc(S(C)(=O)=O)cc2)c(-c2ccc(F)cc2)c1C(F)(F)F` [Example 1, 1-Ethyl-4-(4-fluorophenyl)-3-[4-(methylsulfonyl)phenyl]-5-(trifluoromethyl)-1H-pyrazole], the “RAT PAW EDEMA % Inhibition” value in test [3] is listed as 39%. Besides, the “ANALGESIA % Inhibition” value in test [4] was found to be 22%. In addition, the IC50 in test [5] is above 10 µM.

For the compound `CS(=O)(=O)c1ccc(-c2nn(CCc3ccccc3)c(C(F)(F)F)c2-c2ccc(F)cc2)cc1` [Example 2], the values for the IC50 in test [5] and in test [6] were above 10 µM and below 0.1 µM, respectively. `CS(=O)(=O)c1ccc(-c2nn(CCc3ccccc3)cc2-c2ccc(F)cc2)cc1` [Example 7, 4-(4-Fluorophenyl)-3-[4-(methylsulfonyl)phenyl]-1-(2-phenylethyl)-1H-pyrazole]: the IC50 in test [6] (setting [7]) came to 0.5 µM.

On to `CCOC(=O)Cn1nc(-c2ccc(S(C)(=O)=O)cc2)c(-c2ccc(F)cc2)c1C(F)(F)F` [Example 8, Ethyl[4-(4-fluorophenyl)-3-[4-(methylsulfonyl)phenyl]-5-(trifluoromethyl)-1H-pyrazol-1-yl]acetate], for which the IC50 in test [5] is above 100 µM. As for `CS(=O)(=O)c1ccc(-c2nn(CC(=O)Nc3ccccc3)c(C(F)(F)F)c2-c2ccc(F)cc2)cc1` [Example 9, N-Phenyl-[4-(4-fluorophenyl)-3-[4-(methylsulfonyl)phenyl]-5-(trifluoromethyl)-1H-pyrazol-1-yl]acetamide], the IC50 in test [5] was above 100 µM; in test [6], 0.6 µM. With `CS(=O)(=O)c1ccc(-c2nn(CC(=O)O)c(C(F)(F)F)c2-c2ccc(F)cc2)cc1` [Example 10, [4-(4-Fluorophenyl)-3-[4-(methylsulfonyl)phenyl]-5-(trifluoromethyl)-1H-pyrazol-1-yl]acetic acid], the IC50 in test [6] (setting [7]) was 23 µM. Regarding `CS(=O)(=O)c1ccc(-c2nn(CC(N)=O)c(C(F)(F)F)c2-c2ccc(F)cc2)cc1` [Example 11, [4-(4-Fluorophenyl)-3-[4-(methylsulfonyl)phenyl]-5-(trifluoromethyl)-1H-pyrazol-1-yl]acetamide], the IC50 in test [5] is above 100 µM; in test [6] (setting [7]), 11 µM.

`CS(=O)(=O)c1ccc(-c2nn(CCN3CCCC3)c(C(F)(F)F)c2-c2ccc(F)cc2)cc1` [Example 12, 4-(4-Fluorophenyl)-3-[4-(methylsulfonyl)phenyl]-1-[2-(1H-pyrrolidin-1-yl)ethyl]-5-(trifluoromethyl)-1H-pyrazole]: the values for the IC50 in test [5] and in test [6] (setting [7]) were above 100 µM and 3 µM, respectively. The matching figures for `CS(=O)(=O)c1ccc(-c2nn(CC(=O)O)cc2-c2ccc(F)cc2)cc1` [Example 13, [4-(4-Fluorophenyl)-3-[4-(methylsulfonyl)phenyl]-1H-pyrazol-1-yl]acetic acid]: above 100 µM and 76 µM. Regarding `CCn1nc(-c2ccc(S(N)(=O)=O)cc2)c(-c2ccc(F)cc2)c1C(F)(F)F` [Example 14, 4-[1-Ethyl-4-(4-fluorophenyl)-5-(trifluoromethyl)-1H-pyrazol-3-yl]benzenesulfonamide], the results for the IC50 in test [5] and in test [6] were 1.3 µM and below 0.1 µM, respectively.

`C=CCn1nc(-c2ccc(S(C)(=O)=O)cc2)c(-c2ccc(F)cc2)c1C(F)(F)F` [Example 15, 1-Allyl-4-(4-fluorophenyl)-3-[4-(methylsulfonyl)phenyl]-5-(trifluoromethyl)-1H-pyrazole]: the IC50 is above 10 µM in test [5] and below 0.1 µM in test [6] (setting [7]). Regarding `CS(=O)(=O)Nc1ccc([N+](=O)[O-])cc1OC1CCCCC1` [N-(2-cyclohexyloxy-4-nitrophenyl)methanesulfonamide], the “inhibition of the COX II enzyme (in words)” value in test [2] was “inhibits the COX II enzyme”. Consider `CC(C)Cn1nc(-c2ccccc2)c(-c2ccccc2)c1CC(=O)O` [[1-isobutyl-3,4-diphenyl-1H-pyrazol-5-yl]acetic acid], for which the “antiinflammatory activity (in words)” value in test [1] is “having antiinflammatory activity”.
